According to patent US10730875B2, “Substituted imidazo[1,2-A]pyridin-2-ylamine compounds, and pharmaceutical compositions and methods of use thereof” (JN Therapeutics, priority 2015, dated 2020):

Legend:
[1] = test system: human Janus kinase 3 (JAK3), recombinant catalytic domain; assay: LanthaScreen TR-FRET enzymatic assay, JAK3; type: biochemical; conditions: ratio of IC50 against JAK3 over IC50 against JAK1
Protocol: (§1) The in vitro inhibition of recombinant human JAKs was determined as follow.
(§2) Compounds were tested in LANTHASCREEN™ time-resolved fluorescence energy transfer (TR-FRET) enzymatic assays from Invitrogen. The human Janus kinase 1 (JAK1) used in the assay is the recombinant JAK1 catalytic domain (amino acids 866-1154) expressed and purified from insect cells (Invitrogen, Cat. No. PV4774). The human Janus kinase 2 (JAK2) used in the assay is the recombinant JAK2 catalytic domain (amino acids 808-1132) expressed and purified from insect cells (Invitrogen, Cat. No. PV4210). The human Janus kinase 3 (JAK3) used in the assay is the recombinant JAK3 catalytic domain (amino acids 781-1124) expressed and purified from insect cells (Invitrogen, Cat. No. PV3855). The human tyrosine kinase 2 (TYK2) used in the assay is the recombinant TYK2 catalytic domain (amino acids 833-1187) expressed and purified from insect cells (Invitrogen, Cat. No. PV4790). The substrate is a recombinant STAT1 expressed as a fusion with GFP (Green Fluorescent Protein) to act as a physiological substrate (Invitrogen, Cat. No. PV5211).
(§3) Test compounds were prepared and diluted in DMSO in 3-fold serial dilutions for 10 doses to 100× of the final testing concentrations. The compounds were then further diluted to 4× by the kinase reaction buffer (Invitrogen, Cat. No. PV3189). The enzymatic reaction for compound testing was performed in a white 384-well polypropylene plate (Packard, Cat. No. 6005214) with a total reaction volume of 10 μL containing 440 ng/mL JAK1, 11 ng/mL JAK2, 400 ng/mL JAK3, or 200 ng/mL TYK2, 100 nM substrate, and 1 mM ATP. The assay started with loading 2.5 μL of JAK1, JAK2, JAK3, or TYK2 diluted in the kinase reaction buffer to wells, followed by addition of an equal volume of 4× compounds for 15-min incubation at room temperature for pre-treatment. The enzymatic reaction was initiated by addition of 5 μL of a mixture of the substrate and ATP prepared in the kinase reaction buffer. After one hour reaction, 10 μL mixture of EDTA (final 10 mM) and terbium-labeled anti-pSTAT1 (pTyr701) antibody (final 2 nM) (Invitrogen, Cat. No. PV4844) prepared in TR-FRET antibody dilution buffer (Invitrogen, Cat. No. PV3574) was added to stop the enzymatic reaction and produce TR-FRET signals. After 30 minutes of incubation at room temperature, the plate was read in Tecan Infinite F200 Pro with the following settings: Excitation 340 nm (30)/Emission1 495 nm (10)/Emission2 520 nm (25). The TR-FRET values were dimensionless numbers that were calculated as the ratio of the acceptor ([…]) signal to the donor (Terbium) signal. Percent of inhibition was calculated as (100%−percentage of compound-treated/DMSO vehicle-treated). The dose-response curves were generated and the IC50s were calculated by nonlinear sigmoid curve fitting using GraphPad Prism.
(§4) In Table 1, A represents a value no greater than 500 nM, B represents a value greater than 500 nM but no greater than 1 μM, C represents a value greater than 1 μM but no greater than 5 μM, and D represents a value greater than 5 μM. In Table 2, A′ represents a ratio of greater than 8, B′ represents a ratio of no greater than 8 but no less than 4, C′ represents a ratio of no greater than 4 but no less than 2, and D′ represents a ratio of no greater than 2. The selectivity is expressed as a ratio of the IC50 values of a compound against two kinases to be compared.

[2] = target: human Janus kinase 3 (JAK3), recombinant catalytic domain (Homo sapiens (Human), UniProt P52333); assay: LanthaScreen TR-FRET enzymatic assay, JAK3; type: biochemical; conditions: TR-FRET, 1 mM ATP, GFP-STAT1 substrate; read-out: Inhibitory Activity IC50 JAK3
Protocol: as §1, §2, §3, §4

[3] = test system: human tyrosine kinase 2 (TYK2), recombinant catalytic domain; assay: LanthaScreen TR-FRET enzymatic assay, TYK2; type: biochemical; conditions: ratio of IC50 against TYK2 over IC50 against JAK1
Protocol: as §1, §2, §3, §4

[4] = target: human tyrosine kinase 2 (TYK2), recombinant catalytic domain (Homo sapiens (Human), UniProt P29597); assay: LanthaScreen TR-FRET enzymatic assay, TYK2; type: biochemical; conditions: TR-FRET, 1 mM ATP, GFP-STAT1 substrate; read-out: Inhibitory Activity IC50 TYK2
Protocol: as §1, §2, §3, §4

[5] = target: human Janus kinase 1 (JAK1), recombinant catalytic domain (Homo sapiens (Human), UniProt P23458); assay: LanthaScreen TR-FRET enzymatic assay, JAK1; type: biochemical; conditions: 1 mM ATP, GFP-STAT1 substrate, read-out: Inhibitory Activity IC50 JAK1
Protocol: as §1, §2, §3, §4

JAK1 = JAK1 (Homo sapiens (Human), UniProt P23458); assay: Cellular JAK1 assay: IL-6-mediated STAT3 phosphorylation in TF-1 cells; type: cell-based; conditions: IL-6 stimulation, STAT3 phosphorylation at Tyr705 (AlphaLISA), read-out: Inhibitory Activity Against JAK1 IC50
Protocol: The cellular potency of a compound on JAK1 or JAK2 inhibition is determined by measuring the cytokine-mediated phosphorylation of STAT proteins in TF-1 cells.
Human cytokines of IL-6 (R&D Systems, Cat. No. 206-IL-010/CF) and GM-CSF (R&D Systems, Cat. No. 215-GM-010/CF) are reconstituted at 10 μg/mL in D-PBS containing 0.1% BSA (Sigma, Cat. No. A8577) and human EPO (R&D Systems, Cat. No. 287-TC-500) at 500 U/mL in D-PBS containing 0.1% BSA. TF-1 cells (ATCC, CRL-2003) were grown in RPMI1640 (ATCC, Cat. No. 30-2001) supplemented with 2 ng/mL of recombinant human GM-CSF, 10% FBS (Gibco, Cat. No. 10437-028), and 100 U/mL penicillin-streptomycin (Gibco, Cat. No. 15140-122). The cells were maintained and propagated between 1×10^5 cells/mL to 7.5×10^5 cells/mL. Aliquots of the cells from early passages were preserved for liquid nitrogen storage. Frozen vials of the cells were thawed at 37° C. water bath. The cells were spun to remove freezing medium. The newly revived frozen cells were adapted in culture for 5-7 days before used for compound testing. The cells used in for compound testing were less than 20 subculture passages or 3 months in culture.
To test compounds, the TF-1 cells were harvested at a density of 3 to 7×10^5 cells/mL by centrifugation. After removing the culture medium, the resulting cell pellet was suspended and washed once by centrifugation with HBSS buffer (Gibco, Cat. No. 14025-092) containing 0.1% BSA. The cell pellet was resuspended in HBSS buffer at 7.5×10^6 cells/mL. Four micro-liters of the cells (3×10^4 cells in total) were added to each well of a white 384-well plate (Packard, Cat. No. 6005214).
The compounds were first diluted in dimethylsulfoxide (DMSO) (Sigma, Cat. No. D2650) to generate 9 3-fold diluted dosing concentrations in a 96-well polypropylene plate (Corning, Cat. No. 3365), followed by addition of HBSS buffer for another 125-fold dilution. To the cells, 2 μL of the diluted compounds were added and mixed by tapping the plate several times. The cells were incubated for 2 hrs of treatment. DMSO was used as a control and similarly diluted along and added to the cells.
To assay JAK1 inhibition, 2 μL of IL-6 diluted at 400 ng/mL (4×) in HBSS containing 0.1% BSA was added to the treated cells. The cells were then incubated for 30 min of cytokine treatment and lysed at the end by addition of 2 μL of 5×AlphaLISA SureFire Ultra lysis buffer from Perkin Elmer. The plate was agitated on a plate shaker for 10 min at room temperature. The cellular JAK1 activity was determined by measuring STAT3 phosphorylation at Tyr705 in lysates using the AlphaLISA SureFire Ultra kit (Perkin Elmer, Cat. No. ALSU-PST3-A500). A volume of 5 μL of acceptor mix and donor mix was added sequentially to lysates following the product protocol. The assay signals were recorded on EnVision plate reader (Perkin Elmer) with AlphaScreen optics setting.
The results are summarized in Table 3, where A represents a value no greater than 500 nM, B represents a value greater than 500 nM but no greater than 1 μM, C represents a value greater than 1 μM but no greater than 5 μM, and D represents a value greater than 5 μM.

[6] = target: human Janus kinase 2 (JAK2), recombinant catalytic domain (Homo sapiens (Human), UniProt O60674); assay: LanthaScreen TR-FRET enzymatic assay, JAK2; type: biochemical; conditions: for IC50: TR-FRET, 1 mM ATP, GFP-STAT1 substrate, read-out: Inhibitory Activity IC50 JAK2; for Selectivity JAK2/JAK1: ratio of IC50 against JAK2 over IC50 against JAK1
Protocol: as §1, §2, §3, §4

Sequence of JAK1 (P23458 whole entry): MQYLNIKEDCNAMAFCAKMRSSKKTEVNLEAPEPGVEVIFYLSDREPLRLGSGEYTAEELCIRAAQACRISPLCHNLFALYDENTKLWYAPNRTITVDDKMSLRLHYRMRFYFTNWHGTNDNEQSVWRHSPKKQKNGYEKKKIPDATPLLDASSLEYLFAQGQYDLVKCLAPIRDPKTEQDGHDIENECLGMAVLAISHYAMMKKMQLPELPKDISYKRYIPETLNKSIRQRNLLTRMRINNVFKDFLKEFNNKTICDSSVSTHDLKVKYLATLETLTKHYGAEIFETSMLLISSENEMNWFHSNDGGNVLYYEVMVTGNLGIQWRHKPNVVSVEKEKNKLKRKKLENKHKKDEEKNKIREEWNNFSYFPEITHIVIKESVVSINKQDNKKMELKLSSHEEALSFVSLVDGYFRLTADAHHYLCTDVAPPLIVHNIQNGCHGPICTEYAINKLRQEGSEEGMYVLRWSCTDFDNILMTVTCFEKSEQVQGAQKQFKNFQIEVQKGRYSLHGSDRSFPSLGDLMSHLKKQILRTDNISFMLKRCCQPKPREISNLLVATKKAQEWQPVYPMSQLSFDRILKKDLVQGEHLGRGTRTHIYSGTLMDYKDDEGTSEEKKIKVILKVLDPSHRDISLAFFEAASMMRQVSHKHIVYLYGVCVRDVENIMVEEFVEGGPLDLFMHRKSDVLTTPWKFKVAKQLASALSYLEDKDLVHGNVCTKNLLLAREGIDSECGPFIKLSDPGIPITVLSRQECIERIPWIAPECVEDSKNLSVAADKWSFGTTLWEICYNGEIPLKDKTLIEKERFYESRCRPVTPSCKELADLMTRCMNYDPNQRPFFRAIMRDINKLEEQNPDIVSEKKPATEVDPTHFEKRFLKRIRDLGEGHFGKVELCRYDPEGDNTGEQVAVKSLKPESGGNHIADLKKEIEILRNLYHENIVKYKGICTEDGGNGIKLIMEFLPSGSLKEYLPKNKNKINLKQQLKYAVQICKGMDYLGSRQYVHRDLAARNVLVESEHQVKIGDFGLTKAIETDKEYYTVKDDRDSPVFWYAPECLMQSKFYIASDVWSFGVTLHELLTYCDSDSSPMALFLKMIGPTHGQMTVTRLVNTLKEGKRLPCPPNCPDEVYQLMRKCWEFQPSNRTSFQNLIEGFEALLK
Sequence of human tyrosine kinase 2 (TYK2), recombinant catalytic domain (Homo sapiens (Human), UniProt P29597) (P29597 833-1187): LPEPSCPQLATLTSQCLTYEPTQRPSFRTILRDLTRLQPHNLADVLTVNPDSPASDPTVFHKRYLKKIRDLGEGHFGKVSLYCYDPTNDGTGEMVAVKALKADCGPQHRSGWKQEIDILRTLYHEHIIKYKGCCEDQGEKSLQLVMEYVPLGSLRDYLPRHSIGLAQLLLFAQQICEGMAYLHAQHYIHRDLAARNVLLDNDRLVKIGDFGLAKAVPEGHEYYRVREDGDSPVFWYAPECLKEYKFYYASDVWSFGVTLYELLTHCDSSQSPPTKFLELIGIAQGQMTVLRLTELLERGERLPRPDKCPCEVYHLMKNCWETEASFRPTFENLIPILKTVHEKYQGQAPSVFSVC
Sequence of human Janus kinase 2 (JAK2), recombinant catalytic domain (O60674 808-1132): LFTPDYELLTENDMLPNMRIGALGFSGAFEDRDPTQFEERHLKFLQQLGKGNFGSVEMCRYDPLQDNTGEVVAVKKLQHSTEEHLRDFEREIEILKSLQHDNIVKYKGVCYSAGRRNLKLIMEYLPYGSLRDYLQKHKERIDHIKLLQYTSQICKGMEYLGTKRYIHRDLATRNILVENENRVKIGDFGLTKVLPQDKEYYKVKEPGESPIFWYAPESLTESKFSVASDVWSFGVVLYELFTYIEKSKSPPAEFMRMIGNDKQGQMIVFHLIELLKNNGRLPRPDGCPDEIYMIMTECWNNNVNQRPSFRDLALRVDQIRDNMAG
Sequence of human Janus kinase 1 (JAK1), recombinant catalytic domain (P23458 866-1154): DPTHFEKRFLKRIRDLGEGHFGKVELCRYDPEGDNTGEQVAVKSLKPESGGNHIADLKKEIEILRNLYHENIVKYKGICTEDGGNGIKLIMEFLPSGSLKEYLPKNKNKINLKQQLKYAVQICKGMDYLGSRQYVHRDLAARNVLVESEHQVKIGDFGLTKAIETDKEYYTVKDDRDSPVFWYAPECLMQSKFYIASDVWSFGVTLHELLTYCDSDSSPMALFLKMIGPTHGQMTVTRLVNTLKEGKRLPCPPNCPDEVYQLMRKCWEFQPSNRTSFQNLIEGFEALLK
Sequence of human Janus kinase 3 (JAK3), recombinant catalytic domain (Homo sapiens (Human), UniProt P52333) (P52333 781-1124): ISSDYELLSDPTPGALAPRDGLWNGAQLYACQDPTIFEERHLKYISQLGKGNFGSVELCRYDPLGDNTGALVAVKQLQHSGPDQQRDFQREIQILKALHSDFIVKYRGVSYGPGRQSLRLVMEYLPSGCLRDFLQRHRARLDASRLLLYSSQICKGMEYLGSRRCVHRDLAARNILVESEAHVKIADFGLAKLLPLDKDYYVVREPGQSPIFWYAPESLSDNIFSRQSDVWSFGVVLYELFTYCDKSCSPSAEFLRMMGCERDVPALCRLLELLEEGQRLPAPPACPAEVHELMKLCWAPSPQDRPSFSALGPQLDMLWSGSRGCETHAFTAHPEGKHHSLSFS

Row | Structure (SMILES) | IC50 [2] | IC50 [4] | IC50 [5] | IC50 (JAK1) | IC50 [6] | Selectivity JAK3/JAK1 [1] | Selectivity TYK2/JAK1 [3] | Selectivity JAK2/JAK1 [6]
1 | O=C(Nc1cn2c(-c3ccc(CN4CCS(=O)(=O)CC4)cc3)cccc2n1)C1CC1 [Compound 1, N-(5-(4-((1,1-Dioxo-1-thiomorpholino)methyl)phenyl)imidazo[1,2-a]pyridin-2-yl) cyclopropanecarboxamide] | > 5 µM | 1 to 5 µM | ≤ 0.5 µM | ≤ 0.5 µM | 1 to 5 µM | A′ (A′ represents a ratio of greater than 8) | A′ (A′ represents a ratio of greater than 8) | A′ (A′ represents a ratio of greater than 8)
2 | CC1(C)CN(C(=O)c2ccc(-c3cccc4nc(NC(=O)C5CC5)cn34)cc2F)C1 [Compound 24] | > 5 µM | 1 to 5 µM | ≤ 0.5 µM | ≤ 0.5 µM | 1 to 5 µM | A′ (A′ represents a ratio of greater than 8) | A′ (A′ represents a ratio of greater than 8) | A′ (A′ represents a ratio of greater than 8)
3 | N#CCc1ccc(-c2cccc3nc(NC(=O)C4CC4)cn23)cc1F [Compound 26] | > 5 µM | > 5 µM | ≤ 0.5 µM | ≤ 0.5 µM | > 5 µM | A′ (A′ represents a ratio of greater than 8) | A′ (A′ represents a ratio of greater than 8) | A′ (A′ represents a ratio of greater than 8)
4 | CC(C#N)c1ccc(-c2cccc3nc(NC(=O)C4CC4)cn23)cc1 (stereo not shown) [Compound 27] | > 5 µM | > 5 µM | 0.5 to 1 µM |  | > 5 µM | A′ (A′ represents a ratio of greater than 8) | A′ (A′ represents a ratio of greater than 8) | A′ (A′ represents a ratio of greater than 8)
5 | N#CCc1ccccc1NCc1ccc(-c2cccc3nc(NC(=O)C4CC4)cn23)cc1 [Compound 32] | > 5 µM | > 5 µM | ≤ 0.5 µM |  | > 5 µM | A′ (A′ represents a ratio of greater than 8) | A′ (A′ represents a ratio of greater than 8) | A′ (A′ represents a ratio of greater than 8)

Now from value to compound, other results behind:

Row | IC50 [2] | IC50 [4] | IC50 [5] | IC50 (JAK1) | IC50 [6] | Structure (SMILES) | Selectivity JAK3/JAK1 [1] | Selectivity TYK2/JAK1 [3] | Selectivity JAK2/JAK1 [6]
6 | > 5 µM | 1 to 5 µM | ≤ 0.5 µM | ≤ 0.5 µM | 1 to 5 µM | CC1(C)CN(C(=O)c2ccc(-c3cccc4nc(NC(=O)C5CC5)cn34)cc2)C1 [Compound 17] | A′ (A′ represents a ratio of greater than 8) | A′ (A′ represents a ratio of greater than 8) | A′ (A′ represents a ratio of greater than 8)
7 | > 5 µM | > 5 µM | > 5 µM |  | > 5 µM | CC1(C)CN(Cc2ccc(-c3cccc4nc(NC(=O)C5CC5)cn34)cc2)C1 [Compound 25] | A′ (A′ represents a ratio of greater than 8) | A′ (A′ represents a ratio of greater than 8) | A′ (A′ represents a ratio of greater than 8)
8 | > 5 µM | > 5 µM | > 5 µM |  | > 5 µM | O=C(Nc1cn2c(-c3cccc(CN4CCS(=O)(=O)CC4)c3)cccc2n1)C1CC1 [Compound 29] | A′ (A′ represents a ratio of greater than 8) | C′ (C′ represents a ratio of no greater than 4 but no less than 2) | C′ (C′ represents a ratio of no greater than 4 but no less than 2)
9 | > 5 µM | > 5 µM | > 5 µM |  | > 5 µM | Cc1cc(-c2ccc(CN3CCS(=O)(=O)CC3)cc2)n2cc(NC(=O)C3CC3)nc2c1 [Compound 33] | A′ (A′ represents a ratio of greater than 8) | A′ (A′ represents a ratio of greater than 8) | A′ (A′ represents a ratio of greater than 8)
